Source: DBAASP
≈ marks a conversion by molar mass, not a printed value. Where “and” joins values, the source holds several entries; their conditions need not be identical. Equal values may be shown once. Each block holds one molecule with its values, some of them ahead of it.

How the values were obtained:
Test in all cases: ≥ marks a high value that may be exact or a test limit, other limits are often not marked, values filed in µg/mL are converted to µM
[1] = tested on: Bacillus subtilis ATCC 6633
[2] = tested on: Candida albicans ATCC 10231
[3] = tested on: Candida parapsilosis ATCC 22019
Cryptococcus neoformans = tested on: Cryptococcus neoformans
[4] = tested on: Escherichia coli ATCC 9637
[5] = tested on: Klebsiella pneumoniae ATCC 27736
[6] = tested on: Pseudomonas aeruginosa ATCC BAA-427
[7] = tested on: Staphylococcus aureus ATCC 25923
[8] = tested on: Staphylococcus aureus ATCC 29213
[9] = tested on: Staphylococcus aureus ATCC 33592
[10] = tested on: Staphylococcus aureus ATCC 700698
[11] = tested on: Staphylococcus aureus ATCC 700699
[12] = tested on: Staphylococcus aureus ATCC BAA-44
[13] = tested on: Agrobacterium tumefaciens DSM 3129
[14] = tested on: Bacillus megaterium QMB 1551
[15] = tested on: Bacillus subtilis NRRL B-237
[16] = tested on: Bacillus thuringiensis serovar tenebrionis DSM 2803
[17] = tested on: Brenneria salicis NCPPB 2530
[18] = tested on: Clavibacter michiganensis subsp. insidiosus NCPPB 1109
[19] = tested on: Escherichia coli NCTC 9001
[20] = tested on: Paenibacillus alvei LMG 6922
[21] = tested on: Pseudomonas syringae pv. tomato NCPPB 1106
[22] = tested on: Salmonella enterica subsp. enterica serovar Newport
[23] = tested on: Salmonella typhimurium ATCC 23565
[24] = tested on: Serratia marcescens ATCC 17991
Shigella flexneri CP87 = tested on: Shigella flexneri CP87
[25] = tested on: Sinorhizobium meliloti ZB314
[26] = tested on: Bacillus subtilis DSM 347
[27] = tested on: Escherichia coli DSM 1116
[28] = tested on: Franconibacter helveticus DSM 18390
[29] = tested on: Staphylococcus xylosus DSM 20267
[30] = tested on: Acinetobacter baumannii ATCC 17978
[31] = tested on: Escherichia coli ATCC 8739
[32] = tested on: Staphylococcus aureus HNCMO 112011
[33] = tested on: Bacillus cereus CMCC 6303
[34] = tested on: Cronobacter sakazakii ATCC 29544
Escherichia coli UB1005 = tested on: Escherichia coli UB1005
[35] = tested on: Listeria monocytogenes CMCC 54004
[36] = tested on: Salmonella enterica subsp. enterica CMCC 47020
[37] = tested on: Salmonella enterica subsp. enterica serovar Pullorum C79-13
[38] = tested on: Salmonella enterica subsp. enterica serovar Typhi CMCC 50071
[39] = tested on: Salmonella enterica subsp. enterica serovar Typhimurium ATCC 14028
[40] = tested on: Salmonella enterica subsp. enterica serovar Typhimurium C77-31
[41] = tested on: Staphylococcus aureus CMCC 26074
[42] = tested on: Candida albicans ATCC MYA-2876
[43] = tested on: Candida tropicalis ATCC 750

Compound: CC[C@H](C)[C@H](NC(=O)[C@@H]1CCCN1C(=O)[C@H](CCCN=C(N)N)NC(=O)[C@H](CC(N)=O)NC(=O)[C@H](CC(N)=O)NC(=O)CN)C(=O)N[C@@H](Cc1ccc(O)cc1)C(=O)N[C@H](C(=O)N1CCC[C@H]1C(=O)N[C@@H](CCC(N)=O)C(=O)N1CCC[C@H]1C(=O)N[C@@H](CCCN=C(N)N)C(=O)N1CCC[C@H]1C(=O)N1CCC[C@H]1C(=O)N[C@@H](Cc1cnc[nH]1)C(=O)N1CCC[C@H]1C(=O)N[C@@H](CCCN=C(N)N)C(=O)N[C@@H](CC(C)C)C(=O)O)[C@@H](C)CC [GNNRPIYIPQPRPPHPRL]
MIC [13]: 0.0942 µM (≈ 0.2 µg/mL)
MIC [14]: ≥ 47.1 µM
MIC [15]: ≥ 94.2 µM
MIC [16]: ≥ 94.2 µM
MIC [17]: 0.0094 µM (≈ 0.02 µg/mL)
MIC [18]: ≥ 47.1 µM
MIC [19]: 0.0942 µM (≈ 0.2 µg/mL)
MIC [20]: ≥ 94.2 µM
MIC [21]: 0.0471 µM (≈ 0.1 µg/mL)
MIC [22]: 0.0942 µM (≈ 0.2 µg/mL)
MIC [23]: 0.0471 µM (≈ 0.1 µg/mL)
MIC [24]: ≥ 94.2 µM
MIC (Shigella flexneri CP87): 0.0471 µM (≈ 0.1 µg/mL)
MIC [25]: 0.0094 µM (≈ 0.02 µg/mL)

Compound: CC(C)C[C@H](NC(=O)[C@H](CCCCN)NC(=O)[C@H](CC(C)C)NC(=O)[C@H](CCCCN)NC(=O)[C@H](CC(C)C)NC(=O)[C@@H](N)CCCCN)C(N)=O [KLKLKL]
MIC [26]: ≥ 345 µM
MIC [27]: ≥ 345 µM
MIC [28]: ≥ 345 µM
MIC [29]: ≥ 345 µM

Compound: CC(C)C[C@H](NC(=O)[C@@H]1CCCN1C(=O)[C@H](CCCN=C(N)N)NC(=O)[C@H](CCCN=C(N)N)NC(=O)[C@H](CS)NC(=O)[C@H](CCC(N)=O)NC(=O)[C@@H](N)CCC(N)=O)C(=O)N[C@@H](Cc1ccc(O)cc1)C(=O)N[C@@H](CS)C(=O)N[C@@H](CCCN=C(N)N)C(=O)N[C@@H](CCCN=C(N)N)C(=O)N[C@@H](CCCN=C(N)N)C(=O)N[C@@H](Cc1c[nH]c2ccccc12)C(=O)N[C@@H](CO)C(=O)N[C@@H](Cc1cnc[nH]1)C(=O)N1CCC[C@H]1C(=O)N[C@@H](CCC(N)=O)C(=O)N[C@@H](Cc1ccccc1)C(=O)N[C@@H](CCC(=O)O)C(=O)N[C@@H](CCCCN)C(=O)O [QQCRRPLYCRRRWSHPQFEK]
MIC [30]: 25 µM (≈ 66.9 µg/mL)
MIC [31]: 25 µM (≈ 66.9 µg/mL)
MIC [32]: 25 µM (≈ 66.9 µg/mL)

Compound: CC[C@H](C)[C@H](NC(=O)[C@H](CCCN=C(N)N)NC(=O)[C@H](CCCN=C(N)N)NC(=O)[C@H](Cc1c[nH]c2ccccc12)NC(=O)[C@@H](N)CCCN=C(N)N)C(=O)N[C@H](C(=O)N[C@H](C(=O)N[C@H](C(=O)N[C@@H](CCCN=C(N)N)C(=O)N[C@H](C(=O)N[C@@H](CCCN=C(N)N)C(=O)N[C@@H](CCCN=C(N)N)C(N)=O)C(C)C)[C@@H](C)CC)C(C)C)C(C)C [RWRRIVVIRVRR]
MIC [33]: ≥ 64 µM
MIC [34]: 16 µM (≈ 26.6 µg/mL)
MIC (Escherichia coli UB1005): 16 µM (≈ 26.6 µg/mL)
MIC [35]: 2 µM (≈ 3.33 µg/mL)
MIC [36]: ≥ 128 µM
MIC [37]: ≥ 32 µM
MIC [38]: 8 µM (≈ 13.3 µg/mL)
MIC [39]: 32 µM (≈ 53.3 µg/mL)
MIC [40]: ≥ 32 µM
MIC [7]: 256 µM (≈ 426 µg/mL)
MIC [41]: ≥ 64 µM

More lines, now with the values ahead:

MIC [1]: 15.2 µM (≈ 24.6 µg/mL)
MIC [2]: 30 µM (≈ 48.6 µg/mL)
MIC [3]: 30 µM (≈ 48.6 µg/mL)
MIC (Cryptococcus neoformans): 15 µM (≈ 24.3 µg/mL)
MIC [4]: 12.5 µM (≈ 20.3 µg/mL)
MIC [5]: 15 µM (≈ 24.3 µg/mL)
MIC [6]: 15 µM (≈ 24.3 µg/mL)
MIC [7]: 25 µM and 30 µM and 15.4 µM
MIC [8]: > 30 µM
MIC [9]: 30 µM (≈ 48.6 µg/mL)
MIC [10]: 30 µM (≈ 48.6 µg/mL)
MIC [11]: 30 µM (≈ 48.6 µg/mL)
MIC [12]: 30 µM (≈ 48.6 µg/mL)
Compound: CC[C@H](C)[C@H](NC(=O)[C@H](CCCN=C(N)N)NC(=O)CNC(=O)[C@H](CC(C)C)NC(=O)[C@H](CCCCN)NC(=O)[C@H](CCCCN)NC(=O)[C@H](CO)NC(=O)[C@H](Cc1ccccc1)NC(=O)[C@H](Cc1c[nH]c2ccccc12)NC(=O)[C@H](CCCCN)NC(=O)[C@@H](NC(=O)[C@@H](N)Cc1ccccc1)C(C)C)C(=O)N[C@@H](CC(C)C)C(N)=O [FVKWFSKKLGRIL]

MIC [42]: ≥ 40 µM
MIC [43]: ≥ 40 µM
Compound: CC[C@H](C)[C@H](NC(=O)[C@H](Cc1ccc(O)cc1)NC(=O)[C@@H](N)CCCN=C(N)N)C(=O)N[C@@H](Cc1ccc(O)cc1)C(=O)N[C@@H](CC(C)C)C(=O)N[C@@H](CO)C(=O)NCC(=O)N[C@H](C(=O)N[C@@H](CC(=O)O)C(=O)N[C@@H](CCCN=C(N)N)C(=O)N[C@H](C(=O)N[C@H](C(=O)N[C@@H](CCCN=C(N)N)C(=O)N[C@@H](C)C(=O)N[C@@H](CCCCN)C(=O)N[C@@H](CC(C)C)C(=O)NCC(=O)N[C@@H](CCCCN)C(=O)O)[C@@H](C)CC)[C@@H](C)CC)[C@@H](C)O [RYIYLSGTDRIIRAKLGK]
